Experimental data reported in patent publication US20130137741A1 (ALCON RESEARCH, LTD., priority 2009, published 2013).

Tested on: FGFR
Assay: Kinase inhibition, cell-free enzymatic assay
Assay type: biochemical
Details: 1 mM ATP

Q: With `Cc1ccc(F)c(NC(=O)Nc2ccc(-c3cccc4[nH]nc(N)c34)cc2)c1` [RTK Inhibitor, N-[4-(3-amino-1H-indazol-4-yl)phenyl]-N′-(2-fluoro-5-methylphenyl) urea] as the compound, how does the IC50 read?
A: > 12.5 µM
